Measured values reported in article PMC7403980, “Anti-Inflammatory Effects of the Novel PIM Kinase Inhibitor KMU-470 in RAW 264.7 Cells through the TLR4-NF-κB-NLRP3 Pathway” (International Journal of Molecular Sciences, 2020).

What was measured:
PIM-2 = biological target: T1, PIM-2 (Homo sapiens, UniProt Q9P1W9); assay: PIM kinase IMAP fluorescence polarization IC50 determination; format: biochemical; settings: ATP 5 μM; average of two independent experiments; read-out: Inhibitory Activity IC50 PIM-2
T1 construct: purchased Abcam (Cambridge, UK)
T1 sequence (Q9P1W9 whole entry, species assumed): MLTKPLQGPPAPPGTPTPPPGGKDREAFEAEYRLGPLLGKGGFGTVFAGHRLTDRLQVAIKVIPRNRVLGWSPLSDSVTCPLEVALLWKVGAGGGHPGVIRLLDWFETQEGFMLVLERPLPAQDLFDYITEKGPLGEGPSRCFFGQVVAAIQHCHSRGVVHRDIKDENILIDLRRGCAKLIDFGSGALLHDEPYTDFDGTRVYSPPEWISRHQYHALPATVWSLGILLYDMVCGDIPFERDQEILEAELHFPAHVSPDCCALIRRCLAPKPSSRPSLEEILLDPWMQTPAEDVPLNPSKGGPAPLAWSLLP
Procedure: (§1) The recombinant PIM kinase, human 5-FAM-labelled Bad peptide substrate, and ATP were prepared in a reaction buffer containing 10 mM HEPES (pH 7.2), 10 mM MgCl2, 0.05% NaN3, 0.01% Triton X-100, and 2 mM DTT. […] Reagents were added to the plate as follows: 2.5 μL compound, 2.5 μL PIM kinase, 2.5 μL ATP, and 2.5 μL 5-FAM-labelled Bad peptide substrate (a final concentration of 100 nM). The final concentrations of ATP in the kinase reactions were 30 μM, 5 μM, and 20 μM for PIM1, PIM2, and PIM3, respectively. […] Kinase reactions were incubated at room temperature for 90 min, and then the reactions were stopped by the addition of 20 μL of IMAP binding reagent (solution containing 75% Buffer A: 25% Buffer B, and a 1 in 600 dilution of beads). After quenching, the plates were incubated at room temperature for 2 h, and then the fluorescence polarization measurements were carried out on an Infinity F200 (Tecan, Männedorf, Zürich, Switzerland). The percentage of inhibition was calculated for each compound concentration and the data were fitted to the equation of a 4-parameter logistic curve. IC50 values were obtained using GraphPad Prism (GraphPad Software, Inc., La Jolla, CA, USA).

PIM-3 = biological target: T2, PIM-3 (Homo sapiens, UniProt Q86V86); assay: as above; format: biochemical; settings: ATP 20 μM; average of two independent experiments; read-out: Inhibitory Activity IC50 PIM-3
T2 construct: purchased Millipore (Burlington, MA, USA)
Procedure: as §1

PIM-1 = biological target: T3, PIM-1 (Homo sapiens, UniProt P11309); assay: as above; format: biochemical; settings: ATP 30 μM; average of two independent experiments; read-out: Inhibitory Activity IC50 PIM-1
T3 construct: purchased Life Technologies (Carlsbad, CA, USA)
T3 sequence (P11309 whole entry, species assumed): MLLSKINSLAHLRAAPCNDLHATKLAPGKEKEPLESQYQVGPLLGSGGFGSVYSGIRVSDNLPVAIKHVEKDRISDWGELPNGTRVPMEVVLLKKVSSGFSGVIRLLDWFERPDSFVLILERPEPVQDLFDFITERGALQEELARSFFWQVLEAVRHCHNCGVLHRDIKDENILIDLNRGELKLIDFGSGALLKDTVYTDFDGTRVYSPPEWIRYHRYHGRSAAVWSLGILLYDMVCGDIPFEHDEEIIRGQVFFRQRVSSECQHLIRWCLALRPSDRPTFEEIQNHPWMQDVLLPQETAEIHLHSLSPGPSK
Procedure: as §1

IKKα/β = assay: LPS-induced phosphorylation of IKKα/β in RAW 264.7 cells (Western blot); format: cell-based, murine; settings: KMU-470 0.5 and 1 μM 30 min, LPS 50 ng/mL 6 h
Procedure: Figure 5 Effect of KMU-470 on LPS-induced phosphorylation of MAPKs/ IKKs/ NF-κB in RAW 264.7 cells. (A) Cells were pre-treated with 1μM of KMU-470 for 24 h and stimulated with LPS (50 ng/mL) at the indicated times. (C) Cells were pre-treated with 0.5 and 1μM of KMU-470 for 30 min prior to LPS treatment. Total proteins were isolated after 6 h exposure to LPS (50 ng/mL). The protein expression level of MAPKs, p-IKKα/β, and p-NF-κB were assessed using Western blot analyses. (B,D) The relative optical densities of MAPKs, p-IKKα/β, and p-NF-κB bands were analyzed by the Image-J program. *** p < 0.001.
RAW 264.7 cells were pre-treated with KMU-470 (0.5–1 μM/mL) for 24 h and stimulated with LPS (50 ng/mL) for 6 h. After stimulation, total cells were harvested, washed with PBS buffer, and then the total protein was extracted with a RIPA buffer (0.1 mM sodium orthovanadate, 137 mM NaCl, 15 mM EGTA, 0.1% Triton X-100, 25 mM MOPS, 15 mM MgCl2, 100 μM phenylmethylsulfonyl fluoride, and 20 μM leupeptin, adjusted to pH 7.2). […] Immunoreactive proteins were detected using the ELC Western blot detection system kit (Millipore). Signal intensity was measured using the Chemi Image documentation system (Fusion Fx7, VILBER LOUTMAT). Protein expression levels were quantified using the Image J program.

IL-6 = assay: LPS-induced IL-6 mRNA in RAW 264.7 cells (real time PCR); format: cell-based, murine; settings: KMU-470 30 min, LPS 50 ng/mL 6 h
Procedure: Figure 6 Inhibitory effect of KMU-470 on LPS-induced up-regulation of pro-inflammatory cytokines and activation of NLRP3 inflammasome in RAW 264.7 cells. (A–C) Cells were treated with KMU-470 for 30 min and stimulated with LPS 50 ng/mL for 6 h. The levels of IL-1β, TNF-α, and IL-6 were determined using real time PCR. *** p < 0.001, *p < 0.05. (D) Cells were pre-treated with 0.1, 0.5, and 1 μM of KMU-470 for 30 min and treated with LPS 50 ng/mL for 6 h, respectively. Whole cell lysates were isolated and used to measure the protein expression levels of pro-IL-1β and β-actin by Western blot analysis. (E) Cells were pre-treated with 0.1, 0.5, and 1 μM of KMU-470 for 30 min and treated with LPS 50 ng/mL for 6 h, respectively. Whole cell lysates were isolated and used to measure the protein expression levels of […], ASC, pro-caspase-1, pro-IL-1β, and β-actin by Western blot analysis.
Total RNA was isolated using TriZol reagent (Life Technologies; Gaithersburg, MD, USA) according to the manufacturer’s protocol. Total RNA absorbance was quantified by using Nanodrop 1000 (Thermo Fisher Scientific, Waltham, MA, USA). […] Real time quantitative PCR was performed by using the SYBR green premix (Roche Diagnostics, Mannheim, Germany) on the LightCycler 480 PCR (system Roche Diagnostics, Mannheim, Germany). […]

JNK1α1 (h) = biological target: T4, JNK1α1 (h) (Homo sapiens, UniProt P45983); assay: Kinase profiling (Eurofins Cerep); format: biochemical; settings: KMU-470 10 μM; ATP at Km
T4 construct: purchased Eurofins Cerep S.A. (kinase profiler service)
T4 sequence (P45983 1-384 isoform P45983-2): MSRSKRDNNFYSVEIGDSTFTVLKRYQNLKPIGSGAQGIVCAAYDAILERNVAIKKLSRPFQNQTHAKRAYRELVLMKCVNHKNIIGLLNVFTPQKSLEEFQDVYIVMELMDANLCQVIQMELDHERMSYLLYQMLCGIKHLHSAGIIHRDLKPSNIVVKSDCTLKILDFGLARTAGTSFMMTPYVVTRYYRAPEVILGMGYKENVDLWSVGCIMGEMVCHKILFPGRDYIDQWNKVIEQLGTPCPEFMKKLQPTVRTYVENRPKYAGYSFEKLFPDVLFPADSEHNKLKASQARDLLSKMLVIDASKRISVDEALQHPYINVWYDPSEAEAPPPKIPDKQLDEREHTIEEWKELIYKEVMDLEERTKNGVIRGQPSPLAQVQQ
Procedure: (§2) To test the specificity of the novel PIM kinase inhibitor KMU-470, a kinase profiler service was conducted by Eurofins Cerep S.A. The screening was performed with 1 and 10 μM of compound and a concentration of ATP at the Km value for each individual kinase and kinase substrate according to Eurofin’s protocols.

Blk (h) = biological target: T5, Blk (h) (Homo sapiens, UniProt P51451); assay: Kinase profiling (Eurofins Cerep); format: biochemical; settings: ATP at Km
T5 construct: purchased Eurofins Cerep S.A. (kinase profiler service)
T5 sequence (P51451 whole entry): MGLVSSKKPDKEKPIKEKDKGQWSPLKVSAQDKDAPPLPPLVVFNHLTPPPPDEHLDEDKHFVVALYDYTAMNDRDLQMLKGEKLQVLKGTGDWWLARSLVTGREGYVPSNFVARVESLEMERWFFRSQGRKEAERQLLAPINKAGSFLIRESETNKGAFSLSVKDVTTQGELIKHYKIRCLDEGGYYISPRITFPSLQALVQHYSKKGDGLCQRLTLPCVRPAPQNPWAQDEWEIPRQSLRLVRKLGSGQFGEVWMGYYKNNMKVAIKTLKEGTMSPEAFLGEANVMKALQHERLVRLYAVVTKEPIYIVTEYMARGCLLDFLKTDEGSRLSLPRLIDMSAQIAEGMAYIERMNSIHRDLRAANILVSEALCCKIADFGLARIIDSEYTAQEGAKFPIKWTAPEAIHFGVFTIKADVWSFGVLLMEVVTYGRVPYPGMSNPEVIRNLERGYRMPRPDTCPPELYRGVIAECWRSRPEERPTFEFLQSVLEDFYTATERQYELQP
Procedure: as §2

IC50 (PIM-2): 220 nM
IC50 (PIM-3): 6.9 nM
IC50 (PIM-1): 5.6 nM
Activity (% Control) JNK1α1 (h) (JNK1α1 (h)): 34 % Control
Activity (% Control) Blk (h) (Blk (h); KMU-470 1 μM): 53 % Control
Activity (% Control) Blk (h) (Blk (h); KMU-470 10 μM): 5 % Control
SMILES: CN(C)CCNc1cncc(-c2ccc3c(c2)/C(=C/c2cnc[nH]2)C(=O)N3)n1 [KMU-470, (Z)-3-((1H-Imidazol-5-yl)methylene)-5-(6-((2-(dimethylamino)ethyl)amino)pyrazin-2-yl)indolin-2-one]
LPS-induced phosphorylation of IKKα/β (IKKα/β): significantly reduced
LPS-induced up-regulation of IL-6 (mRNA) (IL-6): significantly decreased
